Active and inactive are the calls of the source. No cut-off for these calls is given here.
Key:
[1] = target: T1, Prostaglandin G/H synthase 1 (Ovis aries) (UniProt P05979); experiment: Inhibition of ovine COX-1 using arachidonic acid as substrate assessed as oxygen consumption at 30 uM measured within 10 to 50 secs
T1 sequence (whole entry): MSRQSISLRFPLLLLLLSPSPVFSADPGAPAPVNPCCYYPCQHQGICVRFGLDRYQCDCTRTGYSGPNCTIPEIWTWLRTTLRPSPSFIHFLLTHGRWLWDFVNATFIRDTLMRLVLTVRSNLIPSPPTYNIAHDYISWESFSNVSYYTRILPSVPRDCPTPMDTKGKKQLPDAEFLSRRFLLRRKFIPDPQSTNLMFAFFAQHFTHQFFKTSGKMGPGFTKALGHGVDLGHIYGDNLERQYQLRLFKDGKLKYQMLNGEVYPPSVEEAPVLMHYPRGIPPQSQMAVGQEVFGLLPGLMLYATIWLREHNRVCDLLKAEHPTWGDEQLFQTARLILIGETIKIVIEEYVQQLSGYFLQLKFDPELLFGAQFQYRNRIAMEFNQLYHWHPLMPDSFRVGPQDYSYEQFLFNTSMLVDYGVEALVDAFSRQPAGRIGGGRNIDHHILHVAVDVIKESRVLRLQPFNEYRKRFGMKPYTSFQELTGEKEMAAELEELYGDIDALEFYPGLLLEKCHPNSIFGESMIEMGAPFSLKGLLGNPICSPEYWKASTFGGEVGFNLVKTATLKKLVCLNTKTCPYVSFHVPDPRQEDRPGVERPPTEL

[2] = target: T2, Lysophosphatidylserine lipase ABHD12 (Homo sapiens) (UniProt Q8N2K0); experiment: Inhibition of human ABHD12 overexpressed in HEK293 cells assessed as 2-AG hydrolysis at 1 uM by fluorescent glycerol assay; assay type: cell-based
T2 sequence (whole entry): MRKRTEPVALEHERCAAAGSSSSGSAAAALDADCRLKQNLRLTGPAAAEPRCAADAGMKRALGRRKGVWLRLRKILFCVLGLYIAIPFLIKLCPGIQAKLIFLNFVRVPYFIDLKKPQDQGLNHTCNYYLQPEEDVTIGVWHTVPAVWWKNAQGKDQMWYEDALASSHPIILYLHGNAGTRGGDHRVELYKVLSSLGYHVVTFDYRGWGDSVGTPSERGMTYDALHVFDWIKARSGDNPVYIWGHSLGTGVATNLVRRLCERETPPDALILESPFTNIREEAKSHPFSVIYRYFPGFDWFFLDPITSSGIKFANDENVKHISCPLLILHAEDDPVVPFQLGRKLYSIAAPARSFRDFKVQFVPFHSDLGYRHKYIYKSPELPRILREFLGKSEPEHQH

[3] = target: T3, Prostaglandin G/H synthase 2 (Homo sapiens) (UniProt P35354); experiment: Inhibition of human recombinant COX-2 assessed as inhibition of 2-AG cyclooxygenation at 100 uM measured within 10 to 50 secs relative to control
T3 sequence (whole entry): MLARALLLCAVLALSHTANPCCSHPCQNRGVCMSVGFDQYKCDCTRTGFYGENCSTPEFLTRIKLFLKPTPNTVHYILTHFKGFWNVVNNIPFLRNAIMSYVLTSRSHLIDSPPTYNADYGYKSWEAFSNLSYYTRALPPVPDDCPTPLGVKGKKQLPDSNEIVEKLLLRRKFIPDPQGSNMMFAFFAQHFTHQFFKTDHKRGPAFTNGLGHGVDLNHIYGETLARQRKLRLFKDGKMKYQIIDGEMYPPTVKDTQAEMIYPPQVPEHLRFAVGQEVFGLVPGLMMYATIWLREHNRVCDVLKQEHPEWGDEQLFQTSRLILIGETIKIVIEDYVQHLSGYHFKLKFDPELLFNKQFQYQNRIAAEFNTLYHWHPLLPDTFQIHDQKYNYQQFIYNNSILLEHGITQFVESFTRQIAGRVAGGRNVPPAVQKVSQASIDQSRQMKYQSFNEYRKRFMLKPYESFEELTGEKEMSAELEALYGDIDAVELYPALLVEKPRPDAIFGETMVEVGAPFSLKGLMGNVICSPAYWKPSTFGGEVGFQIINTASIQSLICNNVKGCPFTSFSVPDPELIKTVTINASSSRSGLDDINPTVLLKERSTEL

[4] = target: T3, Prostaglandin G/H synthase 2 (Homo sapiens); experiment: Inhibition of human recombinant COX-2 assessed as inhibition of arachidonic acid cyclooxygenation at 30 uM measured within 10 to 50 secs relative to control
[5] = target: T3, Prostaglandin G/H synthase 2 (Homo sapiens); experiment: Inhibition of human recombinant COX-2 assessed as inhibition of arachidonic acid cyclooxygenation at 10 uM measured within 10 to 50 secs relative to control
[6] = target: T3, Prostaglandin G/H synthase 2 (Homo sapiens); experiment: Inhibition of human recombinant COX-2 assessed as inhibition of 2-AG cyclooxygenation at 30 uM measured within 10 to 50 secs relative to control
[7] = target: T4, Monoacylglycerol lipase ABHD6 (Homo sapiens) (UniProt Q9BV23); experiment: Inhibition of human ABHD6 overexpressed in HEK293 cells assessed as 2-AG hydrolysis at 1 uM by fluorescent glycerol assay; assay type: cell-based
T4 sequence (whole entry): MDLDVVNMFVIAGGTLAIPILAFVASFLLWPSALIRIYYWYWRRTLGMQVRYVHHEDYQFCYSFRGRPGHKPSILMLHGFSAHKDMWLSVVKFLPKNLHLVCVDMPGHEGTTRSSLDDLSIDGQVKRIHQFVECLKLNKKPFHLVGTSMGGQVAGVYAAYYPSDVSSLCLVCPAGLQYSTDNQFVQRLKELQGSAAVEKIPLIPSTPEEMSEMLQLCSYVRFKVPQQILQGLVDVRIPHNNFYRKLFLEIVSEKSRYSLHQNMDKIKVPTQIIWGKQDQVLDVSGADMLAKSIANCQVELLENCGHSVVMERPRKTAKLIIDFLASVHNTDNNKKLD

[8] = target: T3, Prostaglandin G/H synthase 2 (Homo sapiens); experiment: Inhibition of human recombinant COX-2 assessed as inhibition of 2-AG cyclooxygenation at 10 uM measured within 10 to 50 secs relative to control
[9] = target: T5, Monoglyceride lipase (Homo sapiens, UniProt Q99685); experiment: Inhibition of human recombinant MAGL overexpressed in HEK cells using 2-AG as substrate preincubated for 10 mins before substrate addition measured after 10 mins by HPLC analysis; assay type: cell-based, HEK293
T5 sequence (Q99685 whole entry): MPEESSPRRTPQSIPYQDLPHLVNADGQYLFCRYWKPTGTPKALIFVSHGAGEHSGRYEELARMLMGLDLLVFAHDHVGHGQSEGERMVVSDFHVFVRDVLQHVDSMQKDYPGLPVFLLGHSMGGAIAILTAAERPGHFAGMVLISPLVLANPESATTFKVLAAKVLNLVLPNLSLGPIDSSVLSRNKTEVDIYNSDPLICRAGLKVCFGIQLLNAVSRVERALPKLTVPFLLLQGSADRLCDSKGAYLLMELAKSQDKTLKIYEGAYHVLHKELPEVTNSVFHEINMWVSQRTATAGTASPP

[10] = target: T6, Fatty-acid amide hydrolase 1 (Homo sapiens, UniProt O00519); experiment: Inhibition of human recombinant FAAH overexpressed in African green monkey COS7 cells using [3H]-anandamide as substrate preincubated for 10 mins before substrate addition measured after 10 mins by liquid scintillation counting analysis; assay type: cell-based, COS-7
T6 sequence (O00519 whole entry): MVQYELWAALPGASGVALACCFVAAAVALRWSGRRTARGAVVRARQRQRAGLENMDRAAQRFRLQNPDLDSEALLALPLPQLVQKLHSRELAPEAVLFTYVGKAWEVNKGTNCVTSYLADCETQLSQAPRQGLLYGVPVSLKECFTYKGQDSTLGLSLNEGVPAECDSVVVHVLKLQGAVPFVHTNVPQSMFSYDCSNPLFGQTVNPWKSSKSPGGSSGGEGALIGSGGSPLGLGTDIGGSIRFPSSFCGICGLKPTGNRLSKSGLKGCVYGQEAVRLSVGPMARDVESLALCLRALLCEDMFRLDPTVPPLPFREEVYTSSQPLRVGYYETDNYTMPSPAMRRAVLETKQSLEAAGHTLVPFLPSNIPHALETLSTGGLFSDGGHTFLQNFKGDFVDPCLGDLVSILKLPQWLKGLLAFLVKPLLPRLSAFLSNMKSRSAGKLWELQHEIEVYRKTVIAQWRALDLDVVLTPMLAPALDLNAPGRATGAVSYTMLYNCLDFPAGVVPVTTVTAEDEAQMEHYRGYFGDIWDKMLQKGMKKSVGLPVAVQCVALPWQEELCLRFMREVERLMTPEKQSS

[11] = target: T3, Prostaglandin G/H synthase 2 (Homo sapiens); experiment: Inhibition of human recombinant COX-2 assessed as inhibition of arachidonic acid cyclooxygenation at 100 uM measured within 10 to 50 secs relative to control
[12] = target: T1, Prostaglandin G/H synthase 1 (Ovis aries); experiment: Inhibition of ovine COX-1 using arachidonic acid as substrate assessed as oxygen consumption at 10 uM measured within 10 to 50 secs
[13] = target: T1, Prostaglandin G/H synthase 1 (Ovis aries); experiment: Inhibition of ovine COX-1 using arachidonic acid as substrate assessed as oxygen consumption at 100 uM measured within 10 to 50 secs
[14] = target: T7, Fatty-acid amide hydrolase 1 (Rattus norvegicus) (UniProt P97612); experiment: Inhibition of FAAH in rat RBL2H3 cells assessed as blockade of [3H]-anandamide uptake at 0.1 uM incubated for 15 mins prior to [3H]-anandamide addition measured after 10 mins by scintillation spectroscopic analysis; assay type: cell-based; conditions: RBL-2H3
T7 sequence (whole entry): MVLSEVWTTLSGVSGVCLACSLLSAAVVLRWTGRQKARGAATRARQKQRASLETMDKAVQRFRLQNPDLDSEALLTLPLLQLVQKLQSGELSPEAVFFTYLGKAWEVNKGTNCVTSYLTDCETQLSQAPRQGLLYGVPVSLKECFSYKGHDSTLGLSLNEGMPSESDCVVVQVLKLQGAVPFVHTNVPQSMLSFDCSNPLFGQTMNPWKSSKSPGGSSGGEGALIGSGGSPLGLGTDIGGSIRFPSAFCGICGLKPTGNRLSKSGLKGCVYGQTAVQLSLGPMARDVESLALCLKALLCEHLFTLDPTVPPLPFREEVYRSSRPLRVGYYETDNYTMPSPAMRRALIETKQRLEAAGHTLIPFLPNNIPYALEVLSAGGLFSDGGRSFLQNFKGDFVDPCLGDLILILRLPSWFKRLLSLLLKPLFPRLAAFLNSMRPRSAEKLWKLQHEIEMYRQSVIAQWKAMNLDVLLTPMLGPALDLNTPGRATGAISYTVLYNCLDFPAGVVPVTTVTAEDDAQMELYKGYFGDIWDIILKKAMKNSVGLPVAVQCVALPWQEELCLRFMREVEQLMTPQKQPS

[15] = target: Cannabinoid receptor 2 (Homo sapiens) (UniProt P34972); experiment: Agonist activity at human CB2 receptor expressed in CHO cell membranes up to 10 uM incubated for 10 mins prior to testing by [35S]GTPgammaS binding assay; assay type: functional
Sequence of Cannabinoid receptor 2 (Homo sapiens) (P34972 whole entry): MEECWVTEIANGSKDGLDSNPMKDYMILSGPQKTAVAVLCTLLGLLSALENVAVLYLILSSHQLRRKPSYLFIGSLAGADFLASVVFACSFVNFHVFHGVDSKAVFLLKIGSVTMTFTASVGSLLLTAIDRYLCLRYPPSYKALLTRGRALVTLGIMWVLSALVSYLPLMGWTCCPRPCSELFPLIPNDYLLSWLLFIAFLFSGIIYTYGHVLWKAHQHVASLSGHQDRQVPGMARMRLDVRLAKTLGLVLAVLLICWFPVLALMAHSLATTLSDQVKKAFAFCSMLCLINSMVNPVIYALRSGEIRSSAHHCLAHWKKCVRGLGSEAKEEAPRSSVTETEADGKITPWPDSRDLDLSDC

[16] = target: T8, Monoglyceride lipase (Homo sapiens) (UniProt Q99685); experiment: Inhibition of human recombinant MAGL overexpressed in HEK cells using 2-AG as substrate at 10 uM preincubated for 10 mins before substrate addition measured after 10 mins by HPLC analysis relative to control; assay type: cell-based; conditions: HEK293
T8 sequence (whole entry): T5 sequence (Q99685 whole entry)

[17] = target: Cannabinoid receptor 1 (Rattus norvegicus) (UniProt P20272); experiment: Antagonist activity at CB1 receptor in rat cerebellar membranes assessed as HU210-evoked response up to 10 uM incubated for 10 mins prior to testing by [35S]GTPgammaS binding assay; assay type: functional, cell membranes; conditions: Cerebellum, Membrane
Sequence of Cannabinoid receptor 1 (Rattus norvegicus) (P20272 whole entry): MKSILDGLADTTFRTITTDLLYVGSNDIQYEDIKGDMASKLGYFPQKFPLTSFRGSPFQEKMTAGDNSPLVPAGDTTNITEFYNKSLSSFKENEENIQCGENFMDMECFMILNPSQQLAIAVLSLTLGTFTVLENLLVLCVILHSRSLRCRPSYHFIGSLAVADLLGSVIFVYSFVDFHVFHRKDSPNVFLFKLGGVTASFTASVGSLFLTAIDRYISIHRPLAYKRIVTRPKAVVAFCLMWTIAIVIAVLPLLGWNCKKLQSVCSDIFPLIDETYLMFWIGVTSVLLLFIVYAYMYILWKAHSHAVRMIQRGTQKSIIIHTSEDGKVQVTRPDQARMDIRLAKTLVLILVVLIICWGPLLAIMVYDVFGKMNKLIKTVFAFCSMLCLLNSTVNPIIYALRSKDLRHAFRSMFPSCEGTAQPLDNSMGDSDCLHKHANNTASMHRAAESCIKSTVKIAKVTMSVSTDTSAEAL

[18] = target: T9, Fatty-acid amide hydrolase 1 (Homo sapiens) (UniProt O00519); experiment: Inhibition of human recombinant FAAH overexpressed in African green monkey COS7 cells using [3H]-anandamide as substrate at 3 to 30 uM preincubated for 10 to 60 mins by liquid scintillation counting analysis; assay type: cell-based; conditions: COS-7
T9 sequence (whole entry): T6 sequence (O00519 whole entry)

[19] = target: T9, Fatty-acid amide hydrolase 1 (Homo sapiens); experiment: Inhibition of human recombinant FAAH overexpressed in African green monkey COS7 cells using [3H]-anandamide as substrate at 10 to 100 uM preincubated for 10 to 60 mins by liquid scintillation counting analysis; assay type: cell-based; conditions: COS-7
[20] = target: T9, Fatty-acid amide hydrolase 1 (Homo sapiens); experiment: Noncompetitive inhibition of human recombinant FAAH overexpressed in African green monkey COS7 cells using anandamide as substrate assessed as decrease in Vmax of substrate hydrolysis preincubated for 10 mins before substrate addition measured after 10 mins by HPLC analysis; conditions: COS-7
[21] = target: Cannabinoid receptor 1 (Rattus norvegicus) (UniProt P20272); experiment: Agonist activity at CB1 receptor in rat cerebellar membranes up to 10 uM incubated for 10 mins prior to testing by [35S]GTPgammaS binding assay; assay type: functional, cell membranes; conditions: Cerebellum, Membrane
[22] = target: T9, Fatty-acid amide hydrolase 1 (Homo sapiens); experiment: Inhibition of human recombinant FAAH overexpressed in African green monkey COS7 cells using [3H]-anandamide as substrate at 10 to 300 uM preincubated for 10 to 60 mins by liquid scintillation counting analysis; assay type: cell-based; conditions: COS-7
[23] = target: T9, Fatty-acid amide hydrolase 1 (Homo sapiens); experiment: Reversible inhibition of human recombinant FAAH overexpressed in African green monkey COS7 cells using […] as substrate assessed as recovery of enzyme activity at 20 x IC50 preincubated for 60 mins followed by 500 fold dilution measured after 10 mins by HPLC analysis; assay type: cell-based; conditions: COS-7

Compound: CC(C(=O)O)c1ccc(-c2ccccc2)c(F)c1 (stereo not given)
- inhibition [1]: Active

Compound: COc1nn([C@H](C)c2ccc(CC(C)C)cc2)c(=O)o1
- inhibition [2]: inactive
- inhibition [3]: 30%
- inhibition [4]: 40%
- inhibition [5]: 30%
- inhibition [1]: 10%
- inhibition [6]: 10%
- inhibition [7]: inactive
- inhibition [8]: 20%
- IC50 ([9]; read-out: IC50): 4000 nM
- IC50 ([9]; read-out: pIC50 (converted)): 13500 nM
- IC50 ([10]; read-out: IC50): 240 nM
- IC50 ([10]; read-out: pIC50 (converted)): 245 nM
- inhibition [11]: 50%
- inhibition [12]: inactive
- inhibition [13]: 20%

Compound: O=C(N1CCC(C(c2ccc3c(c2)OCO3)c2ccc3c(c2)OCO3)CC1)n1cncn1
- inhibition [14]: Active

Compound: COc1nn([C@@H](C)c2ccc(-c3ccccc3)cc2)c(=O)o1
- inhibition [2]: inactive
- Activity [15]: inactive
- inhibition [16]: 18%
- inhibition [7]: inactive
- Activity [17]: inactive
- inhibition [18]: Active
- inhibition [19]: Active
- IC50 ([10]; read-out: IC50): 23 nM
- IC50 ([10]; read-out: pIC50 (converted)): 23.4 nM
- inhibition [20]: Dose-dependent effect
- Activity [21]: inactive
- inhibition [22]: Active
- inhibition [23]: Active

Source: ChEMBL document CHEMBL3085700 (J Med Chem, 2013)
